Results from US20140170210A1, “METHODS FOR TREATING IMMUNOSUPPRESSION” (TRUSTEES OF DARTMOUTH COLLEGE, priority 2011, published 2014).
Where two headings read alike, the source gives them in different places.

Experiments:
[1] = rats, dogs, and humans; cited from earlier work
[2] = system: cholesterol ester content in various systemic tissues; details: 4-30 mg/kg/day, small animals; cited from earlier work
hACAT-2 [3] = biological target: T1, hACAT-2 (Homo sapiens, UniProt O75908); details: cited from earlier work
T1 sequence (O75908 1-522): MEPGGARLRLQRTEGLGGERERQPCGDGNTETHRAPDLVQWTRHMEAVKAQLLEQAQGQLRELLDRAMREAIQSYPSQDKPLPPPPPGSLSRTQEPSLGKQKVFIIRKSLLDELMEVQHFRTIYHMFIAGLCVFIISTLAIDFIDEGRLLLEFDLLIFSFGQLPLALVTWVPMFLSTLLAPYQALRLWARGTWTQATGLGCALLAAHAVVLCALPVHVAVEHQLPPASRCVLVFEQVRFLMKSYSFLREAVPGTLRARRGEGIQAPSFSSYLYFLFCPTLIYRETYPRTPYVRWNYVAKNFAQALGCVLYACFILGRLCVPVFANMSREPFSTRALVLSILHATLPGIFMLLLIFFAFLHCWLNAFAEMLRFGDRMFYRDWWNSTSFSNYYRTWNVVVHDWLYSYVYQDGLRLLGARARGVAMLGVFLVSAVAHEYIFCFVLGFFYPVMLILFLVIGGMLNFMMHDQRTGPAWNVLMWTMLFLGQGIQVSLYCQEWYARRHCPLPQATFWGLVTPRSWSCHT

ACAT1 [4] = biological target: T2, ACAT1 (Homo sapiens, UniProt P35610); details: cited from earlier work
T2 sequence (P35610 1-550): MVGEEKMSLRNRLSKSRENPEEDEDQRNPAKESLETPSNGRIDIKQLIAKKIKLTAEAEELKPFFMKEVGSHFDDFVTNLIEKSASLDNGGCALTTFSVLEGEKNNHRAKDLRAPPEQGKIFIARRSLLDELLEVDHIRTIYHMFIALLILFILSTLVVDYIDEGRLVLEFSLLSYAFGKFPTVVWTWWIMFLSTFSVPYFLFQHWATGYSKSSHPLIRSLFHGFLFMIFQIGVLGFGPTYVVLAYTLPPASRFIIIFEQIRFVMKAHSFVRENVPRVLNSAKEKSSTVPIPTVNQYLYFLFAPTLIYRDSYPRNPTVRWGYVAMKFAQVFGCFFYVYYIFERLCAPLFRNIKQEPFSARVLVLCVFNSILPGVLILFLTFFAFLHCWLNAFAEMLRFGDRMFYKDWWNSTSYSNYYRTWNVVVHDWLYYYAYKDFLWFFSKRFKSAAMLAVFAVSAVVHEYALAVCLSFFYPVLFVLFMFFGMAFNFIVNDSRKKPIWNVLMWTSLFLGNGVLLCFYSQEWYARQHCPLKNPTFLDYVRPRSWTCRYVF

human macrophages = details: in vitro; cited from earlier work
[5] = system: amyloid plaque load and cognitive deficits; details: cited from earlier work
coronary atherosclerosis = details: in combination with a statin drug, patients; cited from earlier work
[6] = laboratory animals; cited from earlier work
WT and Acat1-/- BM cells = experiment: Proliferation of cultured BM cells, 3H-thymidine pulse; assay type: cell-based, mouse; details: for effect on higher 3H-thymidine incorporation phenotype of Acat1-/- BM cells: 10 μM U0126, 1 μM PP2, 72 hours culture with growth factors
Procedure: WT and Acat1−/− BM cells were cultured in IMDM media containing 10% FBS in the presence of indicated growth factors with or without specific inhibitors as indicated for 72 hours. Concentrations of growth factors used: 100 ng/mL for stem cell factor, 6 ng/mL for IL3; 2 ng/ml for GM-CSF. Concentration of inhibitors used: 10 μM for U0126; 1 μM for PP2. Proliferation was measured after a 3 hour ^3H-thymidine pulse in intact cells. Results are means±SEM of duplicate cultures in 3 separate experiments. **P<0.01, * P<0.05 vs. WT.
For cell proliferation measurement in vivo, the manufacturer's protocol (BD Pharmingen; BrdU flow kit) was used. Age- and sex-matched mice of both genotypes were injected intraperitoneally twice, once every 12 hours, with 0.5 mg bromodeoxyuridine (BrdU)/injection/mouse. Twenty-four hours after the first injection, BM progenitor cells (LSKs, CMPs, GMPs, and MEPs) were stained and sorted as described earlier. Proliferation of each of the sorted cell populations was measured by measuring BrdU incorporation, using the BrdU flow kit (BD Pharmingen). Proliferation measurement of BM derived-myeloid cells in culture was carried out using a known method (Yvan-Charvet et al. 2010. supra). Briefly, after lysis of red blood cells from crude BM, cells were cultured in IMDM (Gibco) containing 10% fetal bovine serum (FBS) for 2 hours to remove attached cells. The unattached cells were replated for 72 hours in various conditions as described in FIG. 4. Stem cell factor, IL3, and GM-CSF were from R&D Systems. U0126, PP2, and ApoA1 were from Sigma. Squalene synthase inhibitor (SSI) compound CP-340868 was from Pfizer. Cells were pulsed with 2 μCi/mL ^3H-thymidine for 3 hours and ^3H-thymidine incorporation was monitored by using liquid scintillation counter.

[7] = system: atherosclerosis, familial hypercholesterolemia; details: patients with high risk for atherosclerosis or familial hypercholesterolemia; cited from earlier work
ACAT1 and ACAT2 = details: cited from earlier work
ACAT1 [8] = biological target: T2, ACAT1; details: cited from earlier work; remark: listed apart in the source
hACAT-2 [9] = biological target: T1, hACAT-2; details: cited from earlier work; remark: listed apart in the source
ACAT2 = biological target: T3, ACAT2 (Chlorocebus aethiops, UniProt O77759); details: read-out: selective inhibition, ACAT2; cited from earlier work
T3 sequence (O77759 1-526): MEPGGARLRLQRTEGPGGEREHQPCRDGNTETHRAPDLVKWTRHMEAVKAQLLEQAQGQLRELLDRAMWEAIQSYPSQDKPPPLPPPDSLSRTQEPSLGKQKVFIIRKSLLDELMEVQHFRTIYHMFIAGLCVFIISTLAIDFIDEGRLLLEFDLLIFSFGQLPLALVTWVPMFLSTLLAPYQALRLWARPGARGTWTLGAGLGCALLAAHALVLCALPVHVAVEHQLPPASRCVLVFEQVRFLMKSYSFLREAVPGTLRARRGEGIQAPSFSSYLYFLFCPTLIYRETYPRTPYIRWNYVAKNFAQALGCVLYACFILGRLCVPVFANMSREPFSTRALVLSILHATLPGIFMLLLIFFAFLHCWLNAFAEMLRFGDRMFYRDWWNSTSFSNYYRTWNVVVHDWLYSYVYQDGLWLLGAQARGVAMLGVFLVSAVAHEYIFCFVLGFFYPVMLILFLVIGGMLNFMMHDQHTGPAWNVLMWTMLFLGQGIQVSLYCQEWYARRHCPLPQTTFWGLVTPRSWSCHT

ACAT1 [10] = biological target: T2, ACAT1; details: cited from earlier work; remark: listed apart in the source
mouse ACAT1 = experiment: ACAT1 knockdown by Acat1 miRs in NIH-3T3 mouse fibroblasts; assay type: cell-based; details: pre-microRNAs SEQ ID NO:5 and 6
Description: Four different siRNA sequences (#52-#55) targeting the mouse Acat1 (also called Soat1) gene were inserted into an endogenous mouse microRNA (miR) scaffold using Invitrogen's RNAi design tool. The artificial miRs were ligated into the mammalian expression vector pcDNA6.2-GW/EmGFP-miR. […] The miRs were delivered to the cells by using standard cDNA transfection protocol. […] These two Acat1 miR sequences and the NC miR sequence were also subcloned into an rAAV backbone vector (AAV-6P-SEWB) that contained the […]. This vector contains a strong and cell-type-nonspecific promoter that expresses Acat1 miRs in any cell type where the viral genome is expressed. For identification purpose, it also coexpresses the GFP with the miRs. These three constructs were used to produce three recombinant AAV viruses. To test the efficacy and specificity of these viruses, cultured primary hippocampal neurons were treated with the NC AAV, or with AAV that expresses miR that contain siRNA Acat1 #55. Two weeks after viral infection, the effects of AAVs on cholesteryl ester biosynthesis in neurons were tested. […] One month after injection, mice were sacrificed and the ACAT1 enzyme activities in the mouse brain homogenates were analyzed by using standard ACAT enzyme activity assay in vitro.

[11] = mouse model for Alzheimer disease

Molecule: CC(C)c1cc(C(C)C)c(CC(=O)NS(=O)(=O)Oc2c(C(C)C)cccc2C(C)C)c(C(C)C)c1 [Avasimibe]
- safety when administered [1]: safe
- reducing cholesterol ester content in various systemic tissues [2]: effective
- IC50 (hACAT-2 [3]): 19.1 µM
- IC50 (ACAT1 [4]): 18.7 µM
- foam cell formation in macrophages (human macrophages): reduces foam cell formation
- activity in a mouse model for Alzheimer's disease ([5]; 14.4 mg/kg/day): beneficial activity
- amyloid plaque load [5, 11]: significant decreases
- cognitive deficits [5, 11]: reduction in cognitive deficits
- efficacy to further reduce progression of coronary atherosclerosis (coronary atherosclerosis): failed to demonstrate efficacy

Molecule: CSc1cc(C)nc(SC)c1NC(=O)CN1CCN(CCSc2nc3ccccc3[nH]2)CC1 [K-604]
- safety for use in vivo [6]: safe

Molecule: CC(C)(C)n1nc(-c2ccc(Cl)cc2)c2c(N)ncnc21 [PP2]
- effect on higher 3H-thymidine incorporation phenotype of Acat1-/- BM cells (WT and Acat1-/- BM cells): partially alleviated

Molecule: CCCCCCCCN1CCc2c(C)c(CC(=O)O)c(C)c(NC(=O)C(C)(C)C)c21 [Pactimibe]
- efficacy as a supplement to statin treatment [7]: lacked efficacy
- relative potency on ACAT1 and ACAT2 (ACAT1 and ACAT2): approximately equal potency

Molecule: N#CC(=C(/N)Sc1ccccc1N)/C(C#N)=C(\N)Sc1ccccc1N [U0126]
- effect on higher 3H-thymidine incorporation phenotype of Acat1-/- BM cells (WT and Acat1-/- BM cells): partially alleviated

Molecule: CCOC(=O)OC(=O)OCC [diethyl pyrocarbonate]
- greater activity on ACAT1 compared to ACAT-2 (ACAT1 [8]): 4 fold

Molecule: COc1ccc([C@@H](O)[C@@H](C)Oc2ccc([C@H]3O[C@H](c4ccc(O[C@H](C)[C@H](O)c5ccc6c(c5)OCO6)c(OC)c4)[C@H](C)[C@H]3C)cc2OC)cc1OC [manassantin B]
- inhibition of hACAT-2 (hACAT-2 [9]; at 1 mM): 32%

Molecule: ApoA1: a cellular cholesterol efflux mediator
- effect on enhanced proliferation of Acat1-/- BM cells (WT and Acat1-/- BM cells; ApoA1 at 50 or 100 μg/ml): did not diminish

Molecule: beauveriolide I
- IC50 (ACAT2): 20 µM

Molecule: saucerneol B
- IC50 (ACAT1 [10]): 43 µM
- IC50 (hACAT-2 [9]): 124 µM

B1: #55: microRNA against mouse ACAT1, target sequence SEQ ID NO:4; pre-microRNA SEQ ID NO:6 (nucleic acid)
chain: TGCTGTACAGTAGGAGTCCTTGGGTAGTTTTGGCCACTGACTGACTACCCAAGCTCCTACTGTA
modifications: expressed or natural sequence
- mouse ACAT1 expression (mouse ACAT1): decrease

B2: #54: microRNA against mouse ACAT1, target sequence SEQ ID NO:3; pre-microRNA SEQ ID NO:5 (nucleic acid)
chain: TGCTGTCCAGTATCAGAATGAACCGGGTTTTGGCCACTGACTGACCCGGTTCACTGATACTGGA
modifications: expressed or natural sequence
- mouse ACAT1 expression (mouse ACAT1): decrease
